Assay results as given in US11999712B1, “2-(benzo[b]thiophen-3-yl)-1-butyl-4,5-diphenyl-1H-imidazole as an anti-inflammatory and anti-microbial compound” (KING FAISAL UNIVERSITY, priority 2023, dated 2024).

Columns and labels:
E. Coli = experiment: antimicrobial activity, agar dilution method; assay type: cell-based; conditions: after 10, 20, 40 and 60 min at all dilutions 1:100, 1:200, 1:400, 1:800
Description: (§1) The antibacterial properties of the synthesized compounds were studied by the method of agar dilution. Test solutions of each compound was prepared in a concentration of 1% using dimethylformamide as a solvent. Then the test solutions were diluted in a physiological solution to obtain the final experimental dilutions of 1:100, 1:200, 1:400, and 1:800. The effect of these substances was compared with furacillin in a controllable study. The testing microbes used were gram positive bacteria St. Aereus, gram negative bacteria E. Coli, and Ps. aeruginosa and Candida albicans fungi. The experiments used for this survey were a meat-pentonlu agar (EPA) for cultivation of bacteria and a Saburo environment for fungi. Each experiment used 1 mL of test solution on each plate for 500 min. Next, 2 drops of emulsified test solution with microbes feel were added. All experimental samples were taken from the agar after 10, 20, 40, 60 minutes in the environment on the basis of Patrk planted. Bacteria were cultivated at a temperature of 37° ° C. for 1 day and the mushroom was kept in a thermostat for […] at a temperature of 28° C. Then results were checked. Results for the control and the antimicrobial activity for the synthesized compounds are listed in Table 1 below. […]

Ps. aeruginosa = experiment: antimicrobial activity, agar dilution method; assay type: cell-based; conditions: after 10, 20, 40 and 60 min at all dilutions 1:100, 1:200, 1:400, 1:800
Description: as §1

St. Aereus = experiment: antimicrobial activity, agar dilution method; assay type: cell-based; conditions: after 10, 20, 40 and 60 min at all dilutions 1:100, 1:200, 1:400, 1:800
Description: as §1

Candida albicans = experiment: antimicrobial activity, agar dilution method; assay type: cell-based; conditions: after 10, 20, 40 and 60 min at all dilutions 1:100, 1:200, 1:400, 1:800
Description: as §1

SMILES	melting point [°C]	inhibition activity (E. Coli)	inhibition activity (Ps. aeruginosa)	inhibition activity (St. Aereus)	inhibition activity (Candida albicans)
CCCCn1c(-c2csc3ccccc23)nc(-c2ccccc2)c1-c1ccccc1 [2-(Benzo[b]thiophen-3-yl)-1-butyl-4,5-diphenyl-1H-imidazole]	151 to 153	most inhibition activity	most inhibition activity	most inhibition activity	most inhibition activity
CN(C)CCCn1c(-c2cccnc2)nc(-c2ccccc2)c1-c1ccccc1 [3-(4,5-Diphenyl-2-(pyridin-3-yl)-1H-imidazol-1-yl)-N,N-dimethylpropan-1-amine]		highest inhibition activity	highest inhibition activity	highest inhibition activity	highest inhibition activity
